{"source": "patent US20240382495A1", "about": "“COMBINATIONS OF COPANLISIB WITH ANTI-PD-1 ANTIBODY” (BAYER PHARMA AKTIENGESELLSCHAFT, priority 2023, published 2024)", "key": {"[1]": {"system": "A20 diffuse large B cell lymphoma", "assay": "Anti-tumor efficacy in DLBCL syngeneic A20 mouse model", "type": "in vivo", "settings": "monotherapy; Cpd A 14 mg/kg, Cpd B 200 μg/mouse, intravenously; vs vehicle control group", "protocol": "(§1) Experimental Methods A20 diffuse large B cell lymphoma and CT26 colorectal cancer cells were maintained in vitro in cell cultural medium supplemented with serum (according to the instructions for each corresponding cell lines) at 37° C. in an atmosphere of 5% CO2 in air. The tumor cells were routinely subcultured twice weekly. The cells in an exponential growth phase were harvested and counted for tumor inoculation. To investigate anti-tumor efficacy and mechanisms of action in vivo, each mouse was inoculated subcutaneously at the right lower flank region with tumor cells (1×10^5-2×10^6 depending on the cell lines) in 0.1 ml of PBS with or without metrigel for tumor development. Before commencement of treatment, all animals were weighed and the tumor volumes were measured using a caliper. […]\n(§2) Tumor volumes were measured 2-3 times weekly in two dimensions using a caliper, and the volume was expressed in mm^3 using the formula: V=0.5 a x b2 where a and b are the long and short diameters of the tumor, respectively. Tumor weight was measured at study termination. […]\nThe anti-tumor activity of Compound A and Compound B was assessed firstly in an immune-checkpoint blocker resistant DLBCL syngeneic A20 xenograft mouse model as single agent and in combination. […] Body weights and tumor size were measured three times per week. […] The tolerability was assessed by body weight change. […]"}, "CT26 colorectal cancer": {"system": "CT26 colorectal cancer", "assay": "Anti-tumor efficacy in syngeneic CT26 colorectal cancer mouse model", "type": "in vivo", "settings": "CT26 (KRASmut, non-MSIhigh) model, monotherapy", "protocol": "as §1, §2\nTherefore, the anti-tumor activity of Compound A and Compound B was assessed in the mouse syngeneic CT26 (KRASmut, non-MSIhig^h) colorectal cancer xenograft model as single agent and in combination. […]"}, "[2]": {"system": "regulatory T cells (Treg)", "assay": "Analysis of Treg and CD8+ T cells in tumor, spleen and thymus of A20 model", "type": "in vivo, mouse", "protocol": "Sampling procedures: organ and tumor tissues were quickly removed and weighted 3h post the final dose for FACS, IHC (FFPE), and RNA/pretein expression analysis.\nThe anti-tumor activity of Compound A and Compound B was assessed firstly in an immune-checkpoint blocker resistant DLBCL syngeneic A20 xenograft mouse model as single agent and in combination. A20 cells were inoculated subcutaneously at the right flank of female BALB/c mice for tumor development. The treatment was started when the average tumor size reached about 116 mm^3. Mice were allocated randomly into experimental groups according to their tumor sizes and being treated from day 12 after tumor cell inoculation. Cpd A was dosed at 14 mg/kg and Cpd B at 200 μg/mouse intravenously with the schedule indicated in FIG. 1 A. Treatment groups were: control antibody (ctrl Ab), vehicle control (vehicle), compound A monotherapy (Cpd. A), Cpd. B monotherapy, 3 combination groups with different dosing schedules. Body weights and tumor size were measured three times per week. Tumor growth curve (FIG. 1B), tumor weight at the end of treatment (FIG. 1C) and tumor response (FIG. 1D) were used as anti-tumor activity endpoints. The tolerability was assessed by body weight change. […]"}}, "note": "Counter-ions that a name gives are not always drawn.", "data": [{"compound": "COc1c(OCCCN2CCOCC2)ccc2c1N=C(NC(=O)c1cnc(N)nc1)N1CCN=C21", "note": "[Cpd A, 2-amino-N-[7-methoxy-8-(3-morpholin-4-ylpropoxy)-2,3-dihydroimid-azo[1,2-c]quinazolin-5-yl]pyrimidine-5-carboxamide dihydrochloride]", "values": [{"measurement": "relative tumor growth inhibition (TGI %)", "setting": "[1]", "result": 78, "unit": "%"}, {"measurement": "TGI", "setting": "CT26 colorectal cancer", "result": 71, "unit": "%"}, {"measurement": "effect on Treg in thymus and spleen", "setting": "[2]; A20 model, thymus and spleen", "result": "minimal or no effects"}, {"measurement": "effect on Treg population in tumors", "setting": "[2]; A20 tumors, Treg among CD4+ T cells", "result": "specifically reduce the Treg population in tumors"}]}]}
